Patent US10934274B2, “Quinoline derivatives as TAM RTK inhibitors” (Qurient Co., Ltd., priority 2015, dated 2021)

What was measured:
Mer = biological target: T1, Mer (Homo sapiens, UniProt Q12866); experiment: LanthaScreen Eu kinase binding assay, Mer; conditions: Tracer 236
T1 construct: purchased Life Technologies
T1 sequence (Q12866 21-999): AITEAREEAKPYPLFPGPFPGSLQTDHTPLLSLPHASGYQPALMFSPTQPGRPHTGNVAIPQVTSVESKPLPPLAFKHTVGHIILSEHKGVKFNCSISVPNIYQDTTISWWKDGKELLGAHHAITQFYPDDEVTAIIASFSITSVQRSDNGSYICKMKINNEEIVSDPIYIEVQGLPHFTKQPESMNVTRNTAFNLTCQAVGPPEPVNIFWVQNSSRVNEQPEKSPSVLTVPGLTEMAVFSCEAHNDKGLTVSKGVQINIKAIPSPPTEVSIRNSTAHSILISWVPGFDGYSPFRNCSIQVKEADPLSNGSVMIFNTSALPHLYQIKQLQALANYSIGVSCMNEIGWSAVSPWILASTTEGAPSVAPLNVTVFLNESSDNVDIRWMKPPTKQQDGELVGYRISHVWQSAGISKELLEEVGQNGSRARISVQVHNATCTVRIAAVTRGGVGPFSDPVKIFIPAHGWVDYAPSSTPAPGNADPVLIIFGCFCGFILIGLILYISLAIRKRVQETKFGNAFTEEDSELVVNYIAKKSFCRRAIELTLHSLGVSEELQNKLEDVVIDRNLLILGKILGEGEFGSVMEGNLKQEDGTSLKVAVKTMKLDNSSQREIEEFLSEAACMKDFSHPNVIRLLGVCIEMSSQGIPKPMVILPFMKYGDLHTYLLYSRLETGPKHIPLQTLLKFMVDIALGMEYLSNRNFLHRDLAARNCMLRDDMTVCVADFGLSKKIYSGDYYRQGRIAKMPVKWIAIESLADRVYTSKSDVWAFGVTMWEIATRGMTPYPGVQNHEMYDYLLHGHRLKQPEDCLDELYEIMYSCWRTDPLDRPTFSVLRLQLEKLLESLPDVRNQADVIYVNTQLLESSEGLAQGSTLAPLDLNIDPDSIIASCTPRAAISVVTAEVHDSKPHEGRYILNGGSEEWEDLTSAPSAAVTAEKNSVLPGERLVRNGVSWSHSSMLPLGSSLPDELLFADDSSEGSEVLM

[1] = system: Axl phosphorylation in transiently transfected HEK293T cells; experiment: Cellular Axl phosphorylation assay; format: cell-based; conditions: Homo sapiens, HEK-293T; HEK293T cells transfected with Axl, 1 hour compound treatment, Phospho-Axl vs Total-Axl
How it was run: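 Axl-RTK was overexpressed by transfection in HEK293T cells to drive trans-autophosphorylation; cells were exposed to test compound for 1 hour. Phospho-Axl and total Axl were captured in lysates and detected by MSD electrochemiluminescence. IC50 was set between the DMSO group and the empty-vector-transfected minimum.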

SMILES | Kd (Mer) [nM] | IC50 [1] [nM]
CCOc1oc(-c2cccnc2)nc1C(=O)Nc1ccc(Oc2ccnc3cc(OC)c(OC)cc23)cn1 [Compound 44] | < 100 | < 100
COc1cc2nccc(Oc3ccc(NC(=O)c4nn(-c5cnc(N)nc5)cc4OC(C)C)nc3)c2cc1OC [Compound 260] | < 100 | < 100
CCOc1cnn(C2CCCN(C)C2)c1C(=O)Nc1ccc(Oc2ccnc3cc(OC)c(OC)cc23)cc1F (stereo not drawn) [Compound 213] | 100 to 1000 | 100 to 1000
COc1cc2c(Oc3ccc(NC(=O)c4nn(-c5cnc(N)cn5)cc4OCC(F)(F)F)c(F)c3)ccnc2cc1OC(C)C [Compound 246] | < 100 | < 100
CCOc1cn(-c2cnc(N)nc2)nc1C(=O)Nc1ccc(Oc2ccnc3cc(OC)c(OC(F)(F)F)cc23)cn1 [Compound 241] | < 100 | < 100
CCOc1cn(-c2cccs2)nc1C(=O)Nc1ccc(Oc2ccnc3cc(OC)c(OC)cc23)cn1 [Compound 17] | < 100 | < 100
CCOc1cnn(C)c1C(=O)Nc1ccc(Oc2ccnc3cc(OC)c(OC)cc23)cn1 [Compound 30] | 100 to 1000 | < 100
CCOc1cn(Cc2cnccc2C)nc1C(=O)Nc1ccc(Oc2ccnc3cc(OC)c(OC)cc23)cc1F [Compound 226] | < 100 | < 100
CCOc1cn(C2CCCN(C(N)=O)C2)nc1C(=O)Nc1ccc(Oc2ccnc3cc(OC)c(OC)cc23)cc1F (stereo not drawn) [Compound 225] | < 100 | 100 to 1000
COc1cc2nccc(Oc3ccc(NC(=O)c4nn(-c5ccc(OC(F)(F)F)cc5Cl)cc4OCC4CC4)nc3)c2cc1OC [Compound 244] | < 100 | < 100
COc1cc2nccc(Oc3ccc(NC(=O)c4nn(-c5ccc(F)cc5N5CCOCC5)cc4OCC4CC4)nc3)c2cc1OC [Compound 266] | < 100 | < 100
COc1cc2nccc(Oc3ccc(NC(=O)c4nn(-c5cnc(N)nc5)cc4OCC4CC4)nc3)c2cc1OC [Compound 240] | < 100 | < 100
CCOc1cn(Cc2cnccn2)nc1C(=O)Nc1ccc(Oc2ccnc3cc(OC)c(OC)cc23)cc1F [Compound 215] | < 100 | < 100
COc1cc2nccc(Oc3ccc(NC(=O)c4nn(-c5cnc(N)nc5)cc4OCC(F)(F)F)c(F)c3)c2cc1OC [Compound 259] | < 100 | < 100
COc1cc2c(Oc3ccc(NC(=O)c4nn(-c5cnc(N)nc5)cc4OCC(F)(F)F)nc3)ccnc2cc1OC(C)C [Compound 257] | < 100 | < 100
CCOc1cn(CC(C)=O)nc1C(=O)Nc1ccc(Oc2ccnc3cc(OC)c(OC)cc23)cn1 [Compound 66] | < 100 | < 100
CCOc1cn(-c2cccnc2C)nc1C(=O)Nc1ccc(Oc2ccnc3cc(OC)c(OC)cc23)cn1 [Compound 23] | < 100 | < 100
CCOc1cn(-c2cnccc2CO)nc1C(=O)Nc1ccc(Oc2ccnc3cc(OC)c(OC(F)(F)F)cc23)cn1 [Compound 233] | < 100 | < 100
CCOc1cn(CC)nc1C(=O)Nc1ccc(Oc2ccnc3cc(OC)c(OC)cc23)cn1 [Compound 27] | < 100 | < 100
CCOc1cn(-c2nccnc2C(C)(O)CO)nc1C(=O)Nc1ccc(Oc2ccnc3cc(OC)c(OC)cc23)cc1F (stereo not drawn) [Compound 229] | < 100 | < 100
CCOc1cn(-c2cnc(C#N)nc2)nc1C(=O)Nc1ccc(Oc2ccnc3cc(OC)c(OC)cc23)cn1 [Compound 55] | 100 to 1000 | < 100
COc1cc2nccc(Oc3ccc(NC(=O)c4nn(-c5cnc(N)cn5)cc4OCC(F)(F)F)nc3)c2cc1OC [Compound 248] | < 100 | < 100
CCOc1cn(-c2ccco2)nc1C(=O)Nc1ccc(Oc2ccnc3cc(OC)c(OC)cc23)cn1 [Compound 57] | < 100 | < 100
CCOc1cn(-c2cnccc2CCN(C)C)nc1C(=O)Nc1ccc(Oc2ccnc3cc(OC)c(OC)cc23)cn1 [Compound 65] | < 100 | < 100
COc1cc2nccc(Oc3ccc(NC(=O)c4nn(-c5cnc(N)nc5)cc4OCC4COC4)nc3)c2cc1OC [Compound 269] | < 100 | < 100
CCOc1cn(-c2ncco2)nc1C(=O)Nc1ccc(Oc2ccnc3cc(OC)c(OC)cc23)cn1 [Compound 59] | < 100 | < 100
COc1cc2nccc(Oc3ccc(NC(=O)c4nn(-c5cnc(N)cn5)cc4OCC4CC4)nc3)c2cc1OC [Compound 249] | < 100 | < 100
CCOc1cn(-c2ccnnc2)nc1C(=O)Nc1ccc(Oc2ccnc3cc(OC)c(OC)cc23)cn1 [Compound 40] | < 100 | 100 to 1000
COc1cc2nccc(Oc3ccc(NC(=O)c4nn(-c5cnc(N)nc5)cc4OCC(F)(F)F)nc3)c2cc1OC [Compound 237] | < 100 | < 100
COc1cc2nccc(Oc3ccc(NC(=O)c4nn(-c5ccc(F)cc5C)cc4OCC4CC4)nc3)c2cc1OC [Compound 258] | < 100 | < 100
